# Reference: patent publication US6423689B1, “Peptidyl calcium channel blockers” (Warner-Lambert Company, priority 1997, dated 2002)
# Biological target: T1, N-type Ca2+ channels in IMR-32 cells (Homo sapiens, UniProt Q00975)
# T1 construct: host or cells: IMR-32 cells, differentiated with dibutyryl cAMP and bromodeoxyuridine
# Test: Inhibition of N-type calcium flux in IMR-32 cells (Indo-1 fluorescence, nitrendipine present)
# Format: cell-based
# Protocol: Measurement of N-type Ca^2+ Channel Blocking Potencies of Compounds in IMR-32 Cells Using the Fluorescent Ca^2+ Indicator Indo-1
# IMR-32 cells are a human tumoral cell line of neural origin. […] Calcium flux into these cells may be induced by stimulation with elevated potassium concentrations. The L-channel component of calcium flux may be blocked by adding 5 μM nitrendipine. The remaining component of calcium entry into the IMR-32 cells is due to calcium flux through N-type calcium channels. Intracellular calcium concentrations are measured using the fluorescent calcium indicator Indo 1. The effect of drug concentration on calcium uptake is studied.
# The IMR-32 cell line was obtained from the American Type Culture Collection (Rockville, Md.). Cells were grown in Eagle's Minimum Essential Medium with Eagle's salts supplemented with 10% fetal bovine serum, 2 mM L-Gln and antibiotic/antimycotic mixture (Gibco). […] After 7 to 13 days of differentiation, cells were detached using 0.5 mM EDTA and loaded with 5 μM Indo-1 acetoxymethyl ester (Molecular Probes, Eugene, OR) at […] for 45 minutes. Loaded cells were washed twice, resuspended (˜10^7 cells/mL) in assay buffer (10 mM HEPES/Tris pH 7.4 in Hank's Balanced Salt Solution without bicarbonate or phenol red containing 0.5% bovine serum albumin) and kept on ice until use. Fluorescence measurements were carried out in a Photon Technology International (PTI, South Brunswick, N.J.) Model RF-F3004 spectrofluorometer with dual emission monochromators using excitation at 350 nm and emission at 400 and 490 nm. The instrument was equipped with a thermostated cuvette holder with stirring capabilities as well as with a computer-controlled pump which allowed for reagent addition during measurement. Instrument control and data collection was done by PTI's OSCAR software running on an IBM compatible computer. […] Samples were incubated for 10 minutes at 30° C. and then aliquoted into three 10×10 mm disposable acrylic cuvettes. Emission signals at 400 and 490 nm were acquired from each cuvette at 30° C. for 50 seconds. At 20 seconds after the start of reading, cells were depolarized by the addition of 160 μL of stimulation solution (1M KCl, 68 mM CaCl2) to the cuvette via the computer-controlled pump. Ratio of dual emission signals (400 nm/490 nm), which is proportional to intracellular Ca^2+ concentration, was plotted against time, and the difference between maximal response after stimulation and basal value (before stimulation) was determined. Values obtained in this way were plotted as a function of drug concentration. IC50 values of test compounds were calculated by fitting a four-parameter logistic function to the data using the least squares method.
# T1 sequence (Q00975 whole entry): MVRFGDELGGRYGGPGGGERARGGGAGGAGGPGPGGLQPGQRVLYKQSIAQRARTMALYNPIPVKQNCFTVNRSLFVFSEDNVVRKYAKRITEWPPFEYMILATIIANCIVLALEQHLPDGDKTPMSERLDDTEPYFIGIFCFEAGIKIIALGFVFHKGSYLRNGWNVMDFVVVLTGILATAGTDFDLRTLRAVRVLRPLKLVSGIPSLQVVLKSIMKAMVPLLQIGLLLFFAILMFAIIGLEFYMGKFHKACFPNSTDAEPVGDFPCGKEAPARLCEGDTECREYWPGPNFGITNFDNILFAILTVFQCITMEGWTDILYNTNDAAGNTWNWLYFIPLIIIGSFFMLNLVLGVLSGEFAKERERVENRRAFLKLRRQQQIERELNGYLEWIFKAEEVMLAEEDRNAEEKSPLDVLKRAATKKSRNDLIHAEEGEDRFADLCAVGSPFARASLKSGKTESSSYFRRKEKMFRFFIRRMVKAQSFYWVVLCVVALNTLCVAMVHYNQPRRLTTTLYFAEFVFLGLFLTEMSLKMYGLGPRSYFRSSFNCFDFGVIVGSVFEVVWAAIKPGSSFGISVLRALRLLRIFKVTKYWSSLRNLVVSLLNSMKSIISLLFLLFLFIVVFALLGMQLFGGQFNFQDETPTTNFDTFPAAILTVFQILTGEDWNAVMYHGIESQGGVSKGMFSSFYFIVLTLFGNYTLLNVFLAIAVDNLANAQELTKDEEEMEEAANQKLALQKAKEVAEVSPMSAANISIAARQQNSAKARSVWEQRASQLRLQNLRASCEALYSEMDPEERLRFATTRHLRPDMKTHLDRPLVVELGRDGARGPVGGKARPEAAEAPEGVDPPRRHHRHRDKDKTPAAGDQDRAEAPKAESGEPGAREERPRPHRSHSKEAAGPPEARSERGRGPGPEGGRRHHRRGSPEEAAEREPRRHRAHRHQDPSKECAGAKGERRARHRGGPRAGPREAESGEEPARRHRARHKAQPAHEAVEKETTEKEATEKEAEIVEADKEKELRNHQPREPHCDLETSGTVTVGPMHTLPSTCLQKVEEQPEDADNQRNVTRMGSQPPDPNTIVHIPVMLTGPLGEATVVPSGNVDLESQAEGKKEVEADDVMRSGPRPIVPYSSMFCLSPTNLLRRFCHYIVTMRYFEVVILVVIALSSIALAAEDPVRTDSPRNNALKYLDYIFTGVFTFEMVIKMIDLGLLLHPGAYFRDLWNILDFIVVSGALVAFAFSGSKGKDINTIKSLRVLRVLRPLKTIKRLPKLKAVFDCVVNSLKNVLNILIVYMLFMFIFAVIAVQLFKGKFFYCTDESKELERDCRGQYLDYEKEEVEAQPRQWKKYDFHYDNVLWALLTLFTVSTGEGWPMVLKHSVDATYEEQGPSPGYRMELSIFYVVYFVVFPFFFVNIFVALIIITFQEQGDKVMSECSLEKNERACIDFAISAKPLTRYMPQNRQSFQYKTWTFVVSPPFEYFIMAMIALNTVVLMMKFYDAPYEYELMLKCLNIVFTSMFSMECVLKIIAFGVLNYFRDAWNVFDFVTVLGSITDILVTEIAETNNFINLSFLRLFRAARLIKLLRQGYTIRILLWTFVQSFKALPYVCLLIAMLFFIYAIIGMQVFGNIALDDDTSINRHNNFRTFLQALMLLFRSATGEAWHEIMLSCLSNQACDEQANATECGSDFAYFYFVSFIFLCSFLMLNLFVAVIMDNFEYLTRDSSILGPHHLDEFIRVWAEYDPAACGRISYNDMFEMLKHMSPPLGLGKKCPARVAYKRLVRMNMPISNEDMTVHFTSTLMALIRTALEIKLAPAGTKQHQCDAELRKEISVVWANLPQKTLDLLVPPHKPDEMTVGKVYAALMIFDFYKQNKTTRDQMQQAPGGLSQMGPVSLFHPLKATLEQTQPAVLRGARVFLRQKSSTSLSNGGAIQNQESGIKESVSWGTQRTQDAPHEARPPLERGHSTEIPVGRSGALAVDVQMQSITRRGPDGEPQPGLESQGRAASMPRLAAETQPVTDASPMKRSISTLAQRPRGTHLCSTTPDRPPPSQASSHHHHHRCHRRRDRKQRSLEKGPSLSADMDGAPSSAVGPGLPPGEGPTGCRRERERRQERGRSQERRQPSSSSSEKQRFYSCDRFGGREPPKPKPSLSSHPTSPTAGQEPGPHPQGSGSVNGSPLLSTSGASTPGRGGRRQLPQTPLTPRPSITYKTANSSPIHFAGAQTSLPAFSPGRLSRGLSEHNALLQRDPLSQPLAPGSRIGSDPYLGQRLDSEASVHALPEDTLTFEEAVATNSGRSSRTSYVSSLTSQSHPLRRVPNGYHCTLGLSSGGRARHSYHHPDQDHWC
# T1 sequence (P54289 25-956 partner limits assumed): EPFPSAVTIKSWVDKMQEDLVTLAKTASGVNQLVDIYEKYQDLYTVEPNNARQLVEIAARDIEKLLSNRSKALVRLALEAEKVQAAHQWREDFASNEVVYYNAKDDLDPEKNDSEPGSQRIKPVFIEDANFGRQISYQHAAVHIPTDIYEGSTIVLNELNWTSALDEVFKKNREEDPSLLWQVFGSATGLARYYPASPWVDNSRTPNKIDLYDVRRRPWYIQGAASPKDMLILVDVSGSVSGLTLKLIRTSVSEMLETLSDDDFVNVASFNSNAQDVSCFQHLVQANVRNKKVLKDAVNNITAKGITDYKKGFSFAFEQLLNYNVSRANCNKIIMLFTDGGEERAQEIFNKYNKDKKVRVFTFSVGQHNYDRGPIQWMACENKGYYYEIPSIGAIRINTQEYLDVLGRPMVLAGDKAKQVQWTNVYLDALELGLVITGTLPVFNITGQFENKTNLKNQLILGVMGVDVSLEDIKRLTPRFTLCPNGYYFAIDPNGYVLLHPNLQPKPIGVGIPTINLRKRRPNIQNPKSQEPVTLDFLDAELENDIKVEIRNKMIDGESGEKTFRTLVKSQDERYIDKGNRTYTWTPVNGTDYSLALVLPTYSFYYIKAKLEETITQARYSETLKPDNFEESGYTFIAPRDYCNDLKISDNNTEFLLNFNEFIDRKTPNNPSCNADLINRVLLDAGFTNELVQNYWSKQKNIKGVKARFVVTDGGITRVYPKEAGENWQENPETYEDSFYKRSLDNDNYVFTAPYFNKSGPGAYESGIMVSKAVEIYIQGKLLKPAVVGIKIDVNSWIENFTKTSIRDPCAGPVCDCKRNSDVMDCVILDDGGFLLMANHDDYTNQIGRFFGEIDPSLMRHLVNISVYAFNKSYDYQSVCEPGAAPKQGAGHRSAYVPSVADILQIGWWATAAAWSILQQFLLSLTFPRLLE
# T1 sequence (P54289 957-1103 partner limits assumed): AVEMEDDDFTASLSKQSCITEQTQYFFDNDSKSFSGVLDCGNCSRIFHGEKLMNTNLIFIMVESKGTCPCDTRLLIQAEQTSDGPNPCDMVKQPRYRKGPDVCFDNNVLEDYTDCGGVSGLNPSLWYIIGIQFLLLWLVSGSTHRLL
# T1 sequence (P54284 whole entry partner): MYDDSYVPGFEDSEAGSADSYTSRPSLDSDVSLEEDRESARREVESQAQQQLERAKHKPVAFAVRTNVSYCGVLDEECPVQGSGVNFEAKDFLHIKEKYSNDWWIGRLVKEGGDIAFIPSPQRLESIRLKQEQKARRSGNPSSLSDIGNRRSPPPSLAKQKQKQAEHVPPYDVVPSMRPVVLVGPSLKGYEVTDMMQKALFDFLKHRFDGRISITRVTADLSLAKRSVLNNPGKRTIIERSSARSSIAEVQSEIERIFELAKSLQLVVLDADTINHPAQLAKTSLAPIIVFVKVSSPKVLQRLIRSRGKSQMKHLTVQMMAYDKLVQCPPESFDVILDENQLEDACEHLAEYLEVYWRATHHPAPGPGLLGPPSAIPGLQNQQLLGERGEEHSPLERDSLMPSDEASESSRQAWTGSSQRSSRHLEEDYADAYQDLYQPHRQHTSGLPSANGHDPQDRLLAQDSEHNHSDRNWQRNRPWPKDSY
Inhibition of Calcium Flux in IMR-32 Cells % Inhibition at 1 μM [%],Inhibition of Calcium Flux in IMR-32 Cells % Inhibition at 10 μM [%],Structure (SMILES)
45,,"CC(C)C[C@H](NC(=O)N1CCCCCC1)C(=O)N[C@@H](Cc1ccc(OCc2ccccc2)cc1)C(=O)OCc1ccccc1 (relative stereo) [Example 14, [S-(R*,R*)]-2-{2-[(Azepane-1-carbonyl)-amino]-4-methyl-pentanoylamino}-3-(4-benzyloxy-phenyl)-propionic acid benzyl ester]"
43,87,"CC(C)C[C@H](NC(=O)N1CCCCCC1)C(=O)N[C@@H](Cc1ccc(OCc2cccc(N)c2)cc1)C(=O)OC(C)(C)C (relative stereo) [Example 29, [S-(R*,R*)]-3-[4-(3-Amino-benzyloxy)-phenyl]-2-{2-[(azepane-1-carbonyl)-amino]-4-methyl-pentanoylamino}-propionic acid tert-butyl ester]"
29,78,"CC(C)C[C@H](NC(=O)N1CCOCC1)C(=O)N[C@@H](Cc1ccc(OCc2ccccc2)cc1)C(=O)OC(C)(C)C (relative stereo) [Example 34, [S-(R*,R*)]-3-(4-Benzyloxy-phenyl)-2(S)-{4-methyl-2(S)-[(morpholine-4-carbonyl)-amino]-pentanoylamino}-propionic acid tert-butyl ester]"
17,38,"CC(C)C[C@H](NC(=S)Nc1ccc(C(C)C)cc1)C(=O)N[C@@H](Cc1ccc(OCc2ccccc2)cc1)C(=O)OC(C)(C)C (relative stereo) [Example 43, [S-(R*,R*)]-3-(4-Benzyloxy-phenyl)-2-{2-[3-(4-isopropyl-phenyl)-thioureido]-4-methyl-pentanoylamino}-propionic acid, tert-butyl ester]"
29,68,"CC(C)C[C@H](NC(=S)Nc1ccc(Br)cc1)C(=O)N[C@@H](Cc1ccc(OCc2ccccc2)cc1)C(=O)OC(C)(C)C (relative stereo) [Example 45, [S-(R*,R*)]-3-(4-Benzyloxy-phenyl)-2-{2-[3-(4-bromophenyl)-thioureido]-4-methyl-pentanoyl-amino}-propionic acid, tert-butyl ester]"
53,85,"Cc1ccc(NC(=S)N[C@@H](CC(C)C)C(=O)N[C@@H](Cc2ccc(OCc3ccccc3)cc2)C(=O)OC(C)(C)C)cc1 (relative stereo) [Example 50, [S-(R*,R*)]-3-(4-Benzyloxy-phenyl)-2-[4-methyl-2-(3-p-tolyl-thioureido)-pentanoylamino]-propionic acid tert-butyl ester]"
32,85,"CNC(=S)N[C@@H](CC(C)C)C(=O)N[C@@H](Cc1ccc(OCc2ccccc2)cc1)C(=O)OC(C)(C)C (relative stereo) [Example 51, [S-(R*,R*)]-3-(4-Benzyloxy-phenyl)-2-[4-methyl-2-(3-methyl-thioureido)-pentanoylamino]-propionic acid tert-butyl ester]"

Structure (SMILES),Inhibition of Calcium Flux in IMR-32 Cells % Inhibition at 1 μM [%],Inhibition of Calcium Flux in IMR-32 Cells % Inhibition at 10 μM [%]
"COC(=O)[C@H](Cc1ccc(OC(C)(C)C)cc1)NC(=O)[C@H](CC(C)C)NC(=O)N1CCCCCC1 (relative stereo) [Example 22, [S-(R*,R*)]-2-{2-[(Azepane-1-carbonyl)-amino]-4-methyl-pentanoylamino}-3-(4-tert-butoxy-phenyl)-propionic acid methyl ester]",29,
"CC(C)C[C@H](NC(=S)NC12CC3CC(CC(C3)C1)C2)C(=O)N[C@@H](Cc1ccc(OCc2ccccc2)cc1)C(=O)OC(C)(C)C (relative stereo) [Example 46, [S-(R*,R*)]-3-(4-Benzyloxy-phenyl)-2-{2-[3-(1-adamantyl)-thioureido]-4-methylpentanoylamino}-propionic acid, tert-butyl ester]",29,49
